# According to patent US20140162309A1, “Arsenical Fluorescent Agents and Assays” (priority 2010, published 2014):
# Assay: Fluorimetric response of arsenical dye upon introduction of TSH2 (liquid-liquid method)
# Excerpt: When unbound, FlAsH-EDT2 is virtually non-fluorescent. Upon binding of four sulfur atoms, free rotation about the As—C bond is restricted, and the dye becomes brightly fluorescent. Since this visualization method labels proteins inside of cells with low background fluorescence, we hypothesized that this molecular sensor could detect the parasite metabolite without interference from other thiols present in biological fluids. The binding of two molecules of TSH2 should prevent the free rotation about the As—C bond in FlAsH, causing a fluorimetric response.
# FlAsH-EDT2 was virtually non-fluorescent, but upon introduction of TSH2, the fluorescence intensity rose. After approximately 10 minutes, the reaction reached saturation. […] The excitation and emission maxima for the conjugate were 505 nm and 527 nm respectively. This increase in fluorescence is readily detectable without a fluorimeter using a simple handheld black light such as those used at airport security checkpoints. This detection method could be implemented easily in a low technology, resource poor setting. We examined the limits of detection of the metabolite with FlAsH-EDT2. In our liquid-liquid method, a 10-fold excess of the metabolite is sufficient to observe a fluorimetric response within twenty minutes. Therefore, 2.5 nmol of the dye can be used to detect 25 nmol of the metabolite. While lower concentrations were detectable using a fluorimeter, the conjugation was too slow to be practical. However, FlAsH-EDT2 was not designed and is not optimized for this purpose, and it requires two molecules of TSH2 to bind in order to achieve the desired fluorescence response.
structure (smiles),measurement,setting,value
O=C(O)c1ccccc1-c1c2ccc(=O)c([As]3SCCS3)c-2oc2c([As]3SCCS3)c(O)ccc12 [FlAsH-EDT2],amount of metabolite detected (limit of detection),"2.5 nmol of the dye, liquid-liquid method",25 nmol
same,time until the reaction reached saturation,after introduction of TSH2,approximately 10 minutes
same,excess of the metabolite sufficient to observe a fluorimetric response,"liquid-liquid method, response within twenty minutes",10 fold
same,fluorescence of unbound dye as % of the fluorescence of the FlAsH-(TSH2)2 conjugate,normalized fluorescence measurements,0.4%
